Experimental data reported in publication PMC9967152 (International Journal of Molecular Sciences, 2023).
“Also recorded” adds a separate entry of the source. Where a SMILES comes first, the peptide text is derived from it. [ ]: non-standard residue; d: D form. The star is where a group is joined. Daunorubicin(13-NOCH2CO) = COc1cccc2c1C(=O)c1c(O)c3c(c(O)c1C2=O)C[C@@](O)(C(C)=NOCC(=O)*)C[C@@H]3O[C@H]1C[C@H](N)[C@H](O)[C@H](C)O1; Sta = CC(C)C[C@H](N)[C@@H](O)CC(=O)O; Nle = CCCC[C@H](N)C(=O)O; Aib = CC(C)(N)C(=O)O; βAla = NCCC(=O)O

Tests used:
[1] = system: PC-3 human prostate adenocarcinoma cells; experiment: MTT assay, in vitro cytostatic effect; assay type: cell-based; conditions: 24 h treatment at 3.125–25 µM, then cultured up to 72 h, mean ± SD, n = 2 independent experiments with four parallels
Experimental: (§1) Cells were distributed into 96-well tissue culture plates with an initial cell number of 5.0 × 10^3 per well. After 24 h incubation at 37 °C, the cells were treated with the compounds in 200 µL final volume containing 1.0 v/v% DMSO and 10% H2O. […] After incubation, the cells were washed twice with a serum-free medium. To determine the in vitro cytostatic effect, the cells were further cultured up to 72 h in a 10% serum-containing medium. A solution of 3-(4,5-dimethylthiazol-2-yl)-2,5-diphenyltetrazolium bromide and MTT-solution, (45 µL, 2 mg/mL, final concentration: […]) were added to each well. The respiratory chain [67] and other electron transport systems reduce MTT, and thereby form non-water-soluble violet formazan crystals within the cell. […] After 3 h of incubation, the cells were centrifuged for 5 min at 1000 g and the supernatant was removed. The obtained formazan crystals were dissolved in DMSO (100 μL) and the optical density (OD) of the samples was measured at λ = 540 and 620 nm, respectively, using ELISA Reader (iEMS Reader, Labsystems, Finland). OD620 values were subtracted from OD540 values. The percentage of cytostasis was calculated by using the following equation:Cytostatic effect (%) = [1 − (ODtreated/ODcontrol)] × 100(1)
(§2) Values of ODtreated and ODcontrol correspond to the optical densities of the treated and the control cells, respectively. In each case, two independent experiments were carried out with four parallel measurements. The 50% inhibitory concentration (IC50) values were determined from the dose–response curves. The curves were defined using Microcal™ Origin 2018 software: cytostasis was plotted as a function of concentration, fitted to a sigmoidal curve, and based on this curve, the half-maximal inhibitory concentration (IC50) value was determined. IC50 represents the concentration of a compound that is required for 50% inhibition in vitro and is expressed in micromolar units.

[2] = system: MDA-MB-231 human breast adenocarcinoma cells; experiment: MTT assay, in vitro cytostatic effect; assay type: cell-based; conditions: 24 h treatment at 3.125–25 µM, then cultured up to 72 h, mean ± SD, n = 2 independent experiments with four parallels
Experimental: as §1, §2

[3] = system: MDA-MB-453 human metastatic epithelial breast carcinoma cells; experiment: MTT assay, in vitro cytostatic effect; assay type: cell-based; conditions: 24 h treatment at 3.125–25 µM, then cultured up to 72 h, mean ± SD, n = 2 independent experiments with four parallels
Experimental: as §1, §2

[4] = Stability in mouse plasma; assay type: in vitro ADME; conditions: 37 °C, HPLC-MS; for Time after which release of the toxic metabolite Dau=Aoa-Leu-OH starts: 10 µM, for L5 and L6 in a considerably low amount; for remaining at 24 h, 10 μM: 600 rpm, n = 3, read-out: Intact conjugate after one day (24 h)
Experimental: Due to their low IC50 values and internalisation on the tested cell lines, conjugates L1, L5 and L6 were chosen for investigation of their stability in mouse plasma, as potential candidates for in vivo studies. They were incubated at a concentration of 10 µM, with mouse plasma for 24 h at 37 °C. Samples were collected at 0 h, 30 min, 1 h, 2 h, 4 h, 8 h and 24 h and analysed by HPLC-MS. […] Furthermore, after 2 h, L1 starts to release the toxic metabolite Dau=Aoa-Leu-OH, whereas this happens only after 24 h for L5 and L6, in a considerably low amount (see Supplementary Materials, Figures S18–S20).
The conjugates were dissolved in ddH2O containing 10% DMSO (stock solution: 100 μM) and diluted with mouse plasma to a final concentration of 10 μM. The mixture was incubated and stirred at 37 °C, 600 rpm, and 30 µL aliquots were collected after 0 min, 0.5, 1, 2, 4, 8 and 24 h, in triplicates. Then, to each plasma sample, 90 µL of 0.1% formic acid containing MeCN was added, and the samples were frozen at −25 °C for ≥30 min to aid protein precipitation. Large plasma proteins were removed by centrifugation (15 min, 5000× g, 4 °C). Aliquots of 50 µL supernatant were diluted with an equal volume of ddH2O + 0.1% formic acid and analysed by LC–MS. Control measurements were performed in the same manner (10 μM bioconjugate in 100% ddH2O).

[5] = system: PC-3 human prostatic adenocarcinoma xenograft in NOD-SCID mice; experiment: In vivo tumour growth inhibition, subcutaneous PC-3 xenograft; set-up: species or system mouse; conditions: 10 mg/kg on Dau content i.p. every 5th day, n = 8
Experimental: The testing of the antitumour conjugates was carried out in a murine xenograft model. It was established by inoculating subcutaneously 100 µL of cell suspension of PC-3 prostate cancer cells with a concentration of 2 × 10^7 cells/mL.
Once the tumour volume reached 60 mm^3, mice were randomised and assigned to different groups for each treatment, respectively 0.9% saline as control, free daunorubicin, L5, and L6. Each group consisted of eight mice. Peptide–drug conjugates were injected intraperitoneally every 5th day, five times in total (daunorubicin dosage of 10 mg/kg for each treatment). In the case of free daunorubicin, two treatments were administered at the same time points as the first two treatments with conjugates, with a dosage of 1 mg/kg, the maximum tolerated dose (MTD). Weight and tumour size of mice were monitored throughout the whole experiment, two times per week. On day 33, mice were euthanized, and primary tumour, heart, lung, liver and spleen were harvested and stored in 4% formalin (Molar Chemicals, Halásztelek, Hungary). After 2–3 days of incubation in formalin, tissue samples were examined macroscopically. Organs and primary tumours from the different treatment groups were weighed and inspected under a stereomicroscope to see any occurrent changes in morphology compared to the controls.

[6] = Stability in incomplete (serum-free) DMEM; assay type: in vitro ADME; conditions: 25 µM, 37 °C, 600 rpm, LC–MS, n = 2
Experimental: The conjugates were incubated in incomplete DMEM for 3 h (similarly to the internalisation studies) or in 2.5% FBS containing DMEM for 24 h (conditions for the MTT assay). […] No significant loss of L1 and L5 (<20%) or L6 (<30%) was observed after 3 h (see Supplementary Materials, Figure S17).
DMSO stock solutions of the conjugates (2.5 mM) were diluted in DMEM free from or containing 2.5% FBS, to a final concentration of 25 μM. The mixture was incubated and stirred at 37 °C, 600 rpm, and 30 µL aliquots were collected after 0 min, 0.5, 1, 2, 4, 8 and 24 h, in duplicates. Then, to each sample, 90 µL of 0.1% formic acid containing MeCN was added and the samples were frozen at −25 °C for ≥30 min to aid protein precipitation. Large FBS components were removed by centrifugation (15 min, 5000 g, 4 °C). Aliquots of 50 µL supernatant were diluted with an equal volume of ddH2O + 0.1% formic acid and analysed by LC–MS. Control measurements were performed in the same manner (25 μM bioconjugate in 100% ddH2O).

[7] = system: healthy NOD-SCID mice; experiment: In vivo chronic toxicity study in healthy mice; set-up: species or system mouse; conditions: 20 mg/kg calculated on Dau content, every 5th day, four treatments, n = 3
Experimental: Based on the stability assay performed in murine plasma, we decided to investigate L5 and L6 in vivo. To determine the dosage for the tumour growth inhibition experiment, we performed a chronic toxicity study using healthy mice. PDCs were administered every 5th day in three different doses calculated on the Dau content: 5 mg/kg, 10 mg/kg, and 20 mg/kg (Figure 4A). […] When 10 mg/kg drug was applied, the fitness of mice was not affected more than that of mice that received 5 mg/kg.
The toxicity experiments were done in healthy NOD-SCID mice. Treatments were administered every 5th day. Three different concentrations were tested, 5 mg/kg, 10 mg/kg and 20 mg/kg, respectively. Each group consisted of three mice. Mouse weight was monitored five times per week.

[8] = rat liver lysosomal homogenate; conditions: male Wistar rats, 37 °C, up to 72 h
[9] = mouse plasma; conditions: 37 °C, up to 24 h
[10] = incomplete DMEM; conditions: 37 °C, up to 3 h

CCCC[C@H](NC(=O)C(C)(C)NC(=O)[C@H](Cc1c[nH]cn1)NC(=O)CCNC(=O)[C@@H](NC(=O)[C@H](C)NC(=O)[C@H](Cc1c[nH]c2ccccc12)NC(=O)[C@H](CCC(N)=O)NC(=O)[C@@H](Cc1ccccc1)NC(=O)[C@H](Cc1ccc(O)cc1)NC(=O)[C@H](CCCNC(=N)N)NC(=O)[C@H](CCCNC(=N)N)NC(=O)[C@H](CC(C)C)NC(=O)CON=C(C)[C@]1(O)Cc2c(O)c3c(c(O)c2[C@@H](O[C@H]2C[C@H](N)[C@H](O)[C@H](C)O2)C1)C(=O)c1c(OC)cccc1C3=O)C(C)C)C(N)=O ({Daunorubicin(13-NOCH2CO)}-LRRY[dF]QWAV[βAla]H[Aib][Nle]-NH2)
time to release of active metabolite Dau=Aoa-Leu-OH: < 30 min

CC(=O)N[C@H](Cc1ccccc1)C(=O)N[C@@H](CCC(N)=O)C(=O)N[C@@H](Cc1c[nH]c2ccccc12)C(=O)N[C@@H](C)C(=O)N[C@H](C(=O)NCC(=O)N[C@@H](Cc1c[nH]cn1)C(=O)N[C@@H](CC(C)C)[C@@H](O)CC(=O)N[C@@H](CC(C)C)C(N)=O)C(C)C [FP1]
IC50 [1]: > 100 µM | IC50 [2]: > 100 µM | IC50 [3]: > 100 µM

CCCC[C@H](NC(=O)C[C@H](O)[C@H](CC(C)C)NC(=O)[C@H](Cc1c[nH]cn1)NC(=O)CCNC(=O)[C@@H](NC(=O)[C@H](C)NC(=O)[C@H](Cc1c[nH]c2ccccc12)NC(=O)[C@H](CCC(N)=O)NC(=O)[C@@H](Cc1ccccc1)NC(C)=O)C(C)C)C(N)=O [FP2] (Ac-[dF]QWAV[βAla]H[Sta][Nle]-NH2)
IC50 [1]: > 100 µM | IC50 [2]: > 100 µM | IC50 [3]: > 100 µM

COc1cccc2c1C(=O)c1c(O)c3c(c(O)c1C2=O)C[C@@](O)(C(C)=NOCC(=O)N[C@@H](CC(C)C)C(=O)N[C@@H](CCCNC(=N)N)C(=O)N[C@@H](CCCNC(=N)N)C(=O)N[C@@H](Cc1ccc(O)cc1)C(=O)N[C@H](Cc1ccccc1)C(=O)N[C@@H](CCC(N)=O)C(=O)N[C@@H](Cc1c[nH]c2ccccc12)C(=O)N[C@@H](C)C(=O)N[C@H](C(=O)NCC(=O)N[C@@H](Cc1c[nH]cn1)C(=O)N[C@@H](CC(C)C)[C@@H](O)CC(=O)N[C@@H](CC(C)C)C(N)=O)C(C)C)C[C@@H]3O[C@H]1C[C@H](N)[C@H](O)[C@H](C)O1 [L5, (Dau=Aoa)-LRRY-BBN[D-Phe6, Sta13, Leu14]] ({Daunorubicin(13-NOCH2CO)}-LRRY[dF]QWAVGH[Sta]L-NH2)
Time after which release of the toxic metabolite Dau=Aoa-Leu-OH starts [4]: 24 h | remaining at 24 h, 10 μM [4]: > 80% | Toxicity during the tumour growth inhibition experiment [5]: lower toxicity compared to free daunorubicin | Loss of conjugate after 3 h [6]: < 20% | Decrease in mouse weight [7]: 10–15% | time to release of active metabolite Dau=Aoa-Leu-OH: < 30 min

CCCC[C@H](NC(=O)C[C@H](O)[C@H](CC(C)C)NC(=O)[C@H](Cc1c[nH]cn1)NC(=O)CCNC(=O)[C@@H](NC(=O)[C@H](C)NC(=O)[C@H](Cc1c[nH]c2ccccc12)NC(=O)[C@H](CCC(N)=O)NC(=O)[C@@H](Cc1ccccc1)NC(=O)[C@H](Cc1ccc(O)cc1)NC(=O)[C@H](CCCNC(=N)N)NC(=O)[C@H](CCCNC(=N)N)NC(=O)[C@H](CC(C)C)NC(=O)CON=C(C)[C@]1(O)Cc2c(O)c3c(c(O)c2[C@@H](O[C@H]2C[C@H](N)[C@H](O)[C@H](C)O2)C1)C(=O)c1c(OC)cccc1C3=O)C(C)C)C(N)=O [L6, (Dau=Aoa)-LRRY-BBN[D-Phe6, β-Ala11, Sta13, Nle14]] ({Daunorubicin(13-NOCH2CO)}-LRRY[dF]QWAV[βAla]H[Sta][Nle]-NH2)
Time after which release of the toxic metabolite Dau=Aoa-Leu-OH starts [4]: 24 h | remaining at 24 h, 10 μM [4]: > 80% | Toxicity during the tumour growth inhibition experiment [5]: lower toxicity compared to free daunorubicin | Loss of conjugate after 3 h [6]: < 30% | Decrease in mouse weight [7]: 10–15%

Dau=Aoa-LRRY-QWAVGHL-Nle
cleaved bond [8]: Leu-Arg, 15 min | fragment found [8]: Dau=Aoa-LR-OH; also recorded: Dau=Aoa-LRR-OH | fragment found [9]: Dau=Aoa-Leu-OH (M1), minor, 2 h | not cleaved [10]: highly stable for 1.5 h; no significant loss (<20%) after 3 h

Dau=Aoa-LRRY-fQWAV-β-Ala-H-Aib-Nle
cleaved bond [8]: Leu-Arg, 15 min | fragment found [8]: Dau=Aoa-LR-OH; also recorded: H2N-RY-fQWAV-β-Ala-H-Aib-Nle-NH2; also recorded: H2N-Y-fQWAV-β-Ala-H-Aib-Nle-NH2; also recorded: H2N-RY-fQW-OH

Dau=Aoa-LRRY-fQWAV-β-Ala-H-Sta-Nle
cleaved bond [8]: Leu-Arg, 15 min | fragment found [8]: Dau=Aoa-LR-OH; also recorded: H2N-RY-fQWAV-βAla-H-Sta-Nle-NH2; also recorded: H2N-Y-fQWAV-βAla-H-Sta-Nle-NH2; also recorded: H2N-RY-fQW-OH | fragment found [9]: Dau=Aoa-Leu-OH (M1), minor, 24 h | not cleaved [10]: highly stable for 1.5 h; no significant loss (<30%) after 3 h

Dau=Aoa-LRRY-fQWAVGH-Sta-L
cleaved bond [8]: Leu-Arg, 15 min | fragment found [8]: Dau=Aoa-LR-OH; also recorded: H2N-RY-fQWAVGH-Sta-L-NH2; also recorded: H2N-VGH-Sta-L-NH2; also recorded: H2N-GH-Sta-L-NH2; also recorded: H2N-RY-fQW-OH; also recorded: H2N-RYfQ-OH | fragment found [9]: Dau=Aoa-Leu-OH (M1), minor, 24 h | not cleaved [10]: highly stable for 1.5 h; no significant loss (<20%) after 3 h
